Measurements: patent US6355799B1, “Substituted benzene compounds, process for their preparation, and herbicidal and defoliant compositions containing them” (ISK Americas Incorporated, priority 1997, dated 2002)

Experiments:
Type in all cases: in vivo
[1] = tested on: redroot pigweed (Amaranthus retroflexus, AMARE); experiment: Pre-emerge test, greenhouse herbicide activity screening; conditions: rated 14 days after application, 0 = no damage, 100 = complete death
How it was run: (§1)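 Compounds in acetone were track-sprayed at 15-1000 g ai/ha (187 l/ha) on sandy loam pots: pre-emerge one day after seeding, post-emerge at 2-3 leaf stage with 0.25% v/v non-ionic surfactant. Phytotoxicity was rated 14 days later on a 0 (no damage) to 100 (complete death) scale.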

[2] = tested on: barnyardgrass (Echinochloa crus-galli, ECHCG); experiment: as above; conditions: rated 14 days after application, 0 = no damage, 100 = complete death
How it was run: (§2)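 Fourteen days after spraying, crop and weed injury was graded visually from 0, no effect, to 100, every plant dead. Test substances were dissolved in acetone and applied at 15–1000 g ai/ha with a flat-fan nozzle. Application was either pre-emergence, one day after sowing, or post-emergence at the 2–3 leaf stage.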

[3] = tested on: green foxtail (Setaria viridis, SETVI); experiment: as above; conditions: rated 14 days after application, 0 = no damage, 100 = complete death
How it was run: as §2

[4] = tested on: ivyleaf morningglory (Ipomoea hederacea, IPOHE); experiment: as above; conditions: rated 14 days after application, 0 = no damage, 100 = complete death
How it was run: as §2

[5] = tested on: johnsongrass (Sorghum halepense, SORHA); experiment: as above; conditions: rated 14 days after application, 0 = no damage, 100 = complete death
How it was run: as §2

[6] = tested on: lambsquarters (Chenopodium album, CHEAL); experiment: as above; conditions: rated 14 days after application, 0 = no damage, 100 = complete death
How it was run: as §2

[7] = tested on: large crabgrass (Digitaria sanguinalis, DIGSA); experiment: as above; conditions: rated 14 days after application, 0 = no damage, 100 = complete death
How it was run: as §2

[8] = tested on: sicklepod (Cassia obtusifolia, CASOB); experiment: as above; conditions: rated 14 days after application, 0 = no damage, 100 = complete death
How it was run: as §2

[9] = tested on: velvetleaf (Abutilon theophrasti, ABUTH); experiment: as above; conditions: rated 14 days after application, 0 = no damage, 100 = complete death
How it was run: as §2

[10] = tested on: field corn (Zea mays L., var. Dekalb 535, CORN); experiment: Pre-emerge test, crop safety; conditions: rated 14 days after application, 0 = no damage, 100 = complete death
How it was run: (§3)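 Plants grown in 10 cm pots of sandy loam mix received acetone-dissolved compounds through a moving flat-fan nozzle. Doses ranged from 15 to 1000 g ai/ha. Pre-emerge pots were seeded one day earlier, post-emerge pots 8–21 days earlier. Fourteen days on, each pot was graded 0–100 for damage.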

[11] = tested on: upland rice (Oryza sp., var. Tebonnet, RICE); experiment: Pre-emerge test, crop safety; conditions: rated 14 days after application, 0 = no damage, 100 = complete death
How it was run: as §3

[12] = tested on: barnyardgrass (Echinochloa crus-galli, ECHCG); experiment: Post-emerge test, greenhouse herbicide activity screening; conditions: post-emerge, 14 days after application, rating scale 0-100
How it was run: as §1

[13] = tested on: green foxtail (Setaria viridis, SETVI); experiment: as above; conditions: post-emerge, 14 days after application, rating scale 0-100
How it was run: as §1

[14] = tested on: ivyleaf morningglory (Ipomoea hederacea, IPOHE); experiment: as above; conditions: post-emerge, 14 days after application, rating scale 0-100
How it was run: as §1

[15] = tested on: johnsongrass (Sorghum halepense, SORHA); experiment: as above; conditions: post-emerge, 14 days after application, rating scale 0-100
How it was run: as §1

[16] = tested on: lambsquarters (Chenopodium album, CHEAL); experiment: as above; conditions: post-emerge, 14 days after application, rating scale 0-100
How it was run: as §1

[17] = tested on: large crabgrass (Digitaria sanguinalis, DIGSA); experiment: as above; conditions: post-emerge, 14 days after application, rating scale 0-100
How it was run: as §1

[18] = tested on: redroot pigweed (Amaranthus retroflexus, AMARE); experiment: as above; conditions: post-emerge, 14 days after application, rating scale 0-100
How it was run: as §1

[19] = tested on: sicklepod (Cassia obtusifolia, CASOB); experiment: as above; conditions: post-emerge, 14 days after application, rating scale 0-100
How it was run: as §1

[20] = tested on: velvetleaf (Abutilon theophrasti, ABUTH); experiment: as above; conditions: post-emerge, 14 days after application, rating scale 0-100
How it was run: as §1

[21] = tested on: field corn (Zea mays L., var. Dekalb 535, CORN); experiment: Post-emerge test, crop safety; conditions: post-emerge, 14 days after application, rating scale 0-100
How it was run: as §2

[22] = tested on: upland rice (Oryza sp., var. Tebonnet, RICE); experiment: Post-emerge test, crop safety; conditions: post-emerge, 14 days after application, rating scale 0-100
How it was run: as §2

Compound: COc1c(Cl)cc(F)c(-n2c(=O)cc(C(F)(F)F)n(C)c2=O)c1NC(=O)C=Cc1ccccc1 [2-78]
- Pre-emerge Herbicidal Activity, phytotoxicity rating (0-100), AMARE ([1]; 63 g ai/ha): 100
- Pre-emerge Herbicidal Activity, phytotoxicity rating (0-100), AMARE ([1]; 250 g ai/ha): 100
- Pre-emerge Herbicidal Activity, phytotoxicity rating (0-100), ECHCG ([2]; 63 g ai/ha): 10
- Pre-emerge Herbicidal Activity, phytotoxicity rating (0-100), ECHCG ([2]; 250 g ai/ha): 100
- Pre-emerge Herbicidal Activity, phytotoxicity rating (0-100), SETVI ([3]; 63 g ai/ha): 90
- Pre-emerge Herbicidal Activity, phytotoxicity rating (0-100), SETVI ([3]; 250 g ai/ha): 100
- Pre-emerge Herbicidal Activity, phytotoxicity rating (0-100), IPOHE ([4]; 63 g ai/ha): 20
- Pre-emerge Herbicidal Activity, phytotoxicity rating (0-100), IPOHE ([4]; 250 g ai/ha): 100
- Pre-emerge Herbicidal Activity, phytotoxicity rating (0-100), SORHA ([5]; 63 g ai/ha): 10
- Pre-emerge Herbicidal Activity, phytotoxicity rating (0-100), SORHA ([5]; 250 g ai/ha): 80
- Pre-emerge Herbicidal Activity, phytotoxicity rating (0-100), CHEAL ([6]; 63 g ai/ha): 100
- Pre-emerge Herbicidal Activity, phytotoxicity rating (0-100), CHEAL ([6]; 250 g ai/ha): 100
- Pre-emerge Herbicidal Activity, phytotoxicity rating (0-100), DIGSA ([7]; 63 g ai/ha): 30
- Pre-emerge Herbicidal Activity, phytotoxicity rating (0-100), DIGSA ([7]; 250 g ai/ha): 100
- Pre-emerge Herbicidal Activity, phytotoxicity rating (0-100), CASOB ([8]; 63 g ai/ha): 100
- Pre-emerge Herbicidal Activity, phytotoxicity rating (0-100), CASOB ([8]; 250 g ai/ha): 100
- Pre-emerge Herbicidal Activity, phytotoxicity rating (0-100), ABUTH ([9]; 63 g ai/ha): 100
- Pre-emerge Herbicidal Activity, phytotoxicity rating (0-100), ABUTH ([9]; 250 g ai/ha): 100
- Pre-emerge phytotoxicity rating (0-100), crop damage, CORN ([10]; 63 g ai/ha): 0
- Pre-emerge phytotoxicity rating (0-100), crop damage, CORN ([10]; 250 g ai/ha): 10
- Pre-emerge phytotoxicity rating (0-100), crop damage, RICE ([11]; 63 g ai/ha): 40
- Pre-emerge phytotoxicity rating (0-100), crop damage, RICE ([11]; 250 g ai/ha): 95
- phytotoxicity rating ECHCG ([12]; 63 g ai/ha): 10
- phytotoxicity rating ECHCG ([12]; 250 g ai/ha): 10
- phytotoxicity rating SETVI ([13]; 63 g ai/ha): 30
- phytotoxicity rating SETVI ([13]; 250 g ai/ha): 30
- phytotoxicity rating IPOHE ([14]; 63 g ai/ha): 80
- phytotoxicity rating IPOHE ([14]; 250 g ai/ha): 100
- phytotoxicity rating SORHA ([15]; 63 g ai/ha): 0
- phytotoxicity rating SORHA ([15]; 250 g ai/ha): 10
- phytotoxicity rating CHEAL ([16]; 63 g ai/ha): 100
- phytotoxicity rating CHEAL ([16]; 250 g ai/ha): 100
- phytotoxicity rating DIGSA ([17]; 63 g ai/ha): 0
- phytotoxicity rating DIGSA ([17]; 250 g ai/ha): 0
- phytotoxicity rating AMARE ([18]; 63 g ai/ha): 100
- phytotoxicity rating AMARE ([18]; 250 g ai/ha): 100
- phytotoxicity rating CASOB ([19]; 63 g ai/ha): 70
- phytotoxicity rating CASOB ([19]; 250 g ai/ha): 100
- phytotoxicity rating ABUTH ([20]; 63 g ai/ha): 100
- phytotoxicity rating ABUTH ([20]; 250 g ai/ha): 100
- phytotoxicity rating CORN ([21]; 63 g ai/ha): 25
- phytotoxicity rating CORN ([21]; 250 g ai/ha): 30
- phytotoxicity rating RICE ([22]; 63 g ai/ha): 50
- phytotoxicity rating RICE ([22]; 250 g ai/ha): 65
